Literature values, collected in article PMC4059071 (Angewandte Chemie (International ed. in English), 2013).

System: Akt
Details: ref [13]

Cc1n[nH]c2ccc(-c3cncc(OC[C@@H](N)Cc4c[nH]c5ccccc45)c3)cc12 [A-443654]
effect on Akt phosphorylation (Thr308 and Ser473 of Akt): paradoxical hyperphosphorylation of Akt at both Thr308 and Ser473 | effect on Akt protein activity after inhibitor dissociation: protein reactivation after inhibitor dissociation
